Source: publication PMC9671377, “Label-free affinity screening, design and synthesis of inhibitors targeting the Mycobacterium tuberculosis L-alanine dehydrogenase” (PLOS ONE, 2022)

Key:
[1] = target: L249A AlaDH (Mycobacterium tuberculosis, UniProt P9WQB1, L249A); assay type: biochemical
[2] = target: L225A AlaDH (Mycobacterium tuberculosis, UniProt P9WQB1, L225A); assay type: biochemical

CC(C)CNc1ncnc2c1ncn2[C@@H]1O[C@H](CO)[C@@H](O)[C@H]1O [N6-isobutyl adenosine]
vi of L249A AlaDH after adding compound [1]: 1.007 x10^-3 [NADH]OD340/min
vi of L225A AlaDH after adding compound [2]: 0.821 x10^-3 [NADH]OD340/min
